From publication PMC10107428 (Chemistry (Weinheim an Der Bergstrasse, Germany), 2022)

Target: T1, Galectin-8 (Gal8-6FW) (Homo sapiens, UniProt O00214)
T1 sequence (O00214 1-317): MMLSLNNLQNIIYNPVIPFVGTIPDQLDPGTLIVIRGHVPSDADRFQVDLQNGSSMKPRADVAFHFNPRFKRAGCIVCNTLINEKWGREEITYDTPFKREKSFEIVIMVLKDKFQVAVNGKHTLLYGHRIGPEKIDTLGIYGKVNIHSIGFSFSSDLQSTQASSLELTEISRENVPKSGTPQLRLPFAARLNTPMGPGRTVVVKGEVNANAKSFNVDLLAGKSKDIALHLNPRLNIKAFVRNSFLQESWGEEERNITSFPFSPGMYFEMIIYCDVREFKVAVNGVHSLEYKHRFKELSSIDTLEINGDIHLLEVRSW
Test: […] NMR titration
Assay type: binding

## OC[C@H]1O[C@@H](O[C@H]2[C@H](O)[C@@H](O)C(O)O[C@@H]2CO)[C@H](O)[C@@H](O)[C@H]1O (stereo partly shown) [lactose]
  19F NMR titration: Lactose binds to both domains of Gal8 with very similar and weak affinities
